The record followed here is ChEMBL document CHEMBL5543143, “Potentiating Activity of GmhA Inhibitors on Gram-Negative Bacteria” (J Med Chem, 2024).

Activity calls are given as the source filed them. The rule behind the calls is not given here. A value given as a limit tells only on which side of the number the result lay.

The subject of assay [1] is Escherichia coli. As to the kind of experiment: Potentiation of rifampicin induced antibacterial activity against Escherichia coli C7 (018:K1:H7) assessed as rifampicin MIC incubated overnight by two fold serial dilution assay. It counts as functional.
The test system of the next assay is HepG2. As to the kind of experiment: Cytotoxicity against human HepG2 cells incubated overnight by Celltiter aqueous one solution cell proliferation assay. It counts as functional.
For assay [2], the system named is Escherichia coli. Nature of the assay: Potentiation of erythromycin induced antibacterial activity against Escherichia coli C7 (018:K1:H7) assessed as erythromycin MIC incubated overnight by two fold serial dilution assay. It counts as functional.
A further assay has as its target Phosphoheptose isomerase (Escherichia coli (strain K12), UniProt P63224). Details: species or system K96243.
The test system of assay [3] is Escherichia coli. As to the kind of experiment: Antibacterial activity in Escherichia coli C7 (018:K1:H7) assessed as reduction in bacterial growth at 300 uM measured after 24 hrs by time-kill kinetics assay. It counts as functional, organism-based.

Chain of Phosphoheptose isomerase (P63224 whole entry, looked up): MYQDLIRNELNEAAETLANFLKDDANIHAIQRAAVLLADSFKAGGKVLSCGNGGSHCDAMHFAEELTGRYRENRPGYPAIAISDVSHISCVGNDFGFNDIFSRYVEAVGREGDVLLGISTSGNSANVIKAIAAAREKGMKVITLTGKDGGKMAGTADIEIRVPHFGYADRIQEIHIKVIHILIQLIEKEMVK

Broadly, the MIC is the lowest concentration that inhibits growth of the organism. By CC50 is commonly meant the concentration at which the toxic effect on the cells reaches its halfway point. Read a low CC50 as greater toxicity to the cells. In general, IC50 refers to the concentration at which inhibition is half-maximal. A low value points to higher potency. With `O=CN(O)C[C@H](O)[C@H](O)[C@H](O)COP(=O)(O)O`, the minimum inhibitory concentration (MIC) was 0.25 µg/mL in the assay with Escherichia coli [1] and 1 µg/mL with Escherichia coli [2]. The compound also yielded a CC50 in the assay on HepG2 greater than 1000 µM. In addition, the IC50 against Phosphoheptose isomerase was 0.002 µM. The result in the assay with Escherichia coli [3] was inactive.
`O=CN(O)C[C@H](O)[C@H](O)[C@H](O)CCP(=O)(O)O` showed a CC50 in the assay on HepG2 greater than 1000 µM.
